# From article PMC7044277 (Nature Communications, 2020)
# “And” between values parts separate entries of the source, which are not always exact repeats. Identical values can stand only once.
# Tests used:
# Assay type in all cases: cell-based
# 320 non-olfactory GPCRs [1] = target: T1, 320 non-olfactory GPCRs (Homo sapiens, UniProt Q8TDS5); conditions: receptor OXER1; replicate values, Fig_4g
# T1 construct: expressed in transfected cells; host or cells: HTLA cells
# 320 non-olfactory GPCRs [2] = target: T2, 320 non-olfactory GPCRs (Homo sapiens, UniProt Q9HBW9)
# T2 construct: expressed in transfected cells; host or cells: HTLA cells
# 320 non-olfactory GPCRs [3] = target: T3, 320 non-olfactory GPCRs (Homo sapiens, UniProt P41968); conditions: receptor MC3Rb; replicate values, Fig_4g
# T3 construct: expressed in transfected cells; host or cells: HTLA cells
# 320 non-olfactory GPCRs [4] = target: T4, 320 non-olfactory GPCRs (Homo sapiens, UniProt Q9Y5X5); conditions: receptor NPFF2; replicate values, Fig_4g
# T4 construct: expressed in transfected cells; host or cells: HTLA cells
# 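For Fold of Basal in this document: compound tested at 1 µM final concentration.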
# 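For GPCRome agonism screen response in this document: fold over basal response of each receptor without drug.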
# T4 sequence (Q9Y5X5 whole entry): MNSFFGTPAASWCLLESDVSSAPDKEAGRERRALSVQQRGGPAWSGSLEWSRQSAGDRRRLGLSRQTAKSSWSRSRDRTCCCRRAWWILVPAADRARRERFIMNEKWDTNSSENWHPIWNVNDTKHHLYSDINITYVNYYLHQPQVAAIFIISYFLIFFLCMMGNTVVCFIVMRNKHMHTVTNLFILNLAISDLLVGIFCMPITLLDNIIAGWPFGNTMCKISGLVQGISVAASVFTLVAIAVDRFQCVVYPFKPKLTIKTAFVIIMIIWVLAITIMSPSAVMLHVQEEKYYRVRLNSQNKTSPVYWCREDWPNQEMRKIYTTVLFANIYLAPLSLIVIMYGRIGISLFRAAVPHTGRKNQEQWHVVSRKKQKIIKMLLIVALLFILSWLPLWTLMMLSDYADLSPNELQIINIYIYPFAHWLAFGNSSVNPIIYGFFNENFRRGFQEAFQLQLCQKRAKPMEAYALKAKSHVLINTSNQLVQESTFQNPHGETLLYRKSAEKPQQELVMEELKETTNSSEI
# T3 sequence (P41968 whole entry): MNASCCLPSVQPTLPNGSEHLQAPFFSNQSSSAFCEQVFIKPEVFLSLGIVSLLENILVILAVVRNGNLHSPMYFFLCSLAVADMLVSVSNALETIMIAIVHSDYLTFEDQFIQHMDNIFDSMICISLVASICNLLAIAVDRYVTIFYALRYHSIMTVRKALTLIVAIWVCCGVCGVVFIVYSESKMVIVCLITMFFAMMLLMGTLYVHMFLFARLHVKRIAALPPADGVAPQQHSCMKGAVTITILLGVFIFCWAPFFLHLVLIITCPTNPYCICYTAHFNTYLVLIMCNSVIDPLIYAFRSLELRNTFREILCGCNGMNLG
# T2 sequence (Q9HBW9 20-690): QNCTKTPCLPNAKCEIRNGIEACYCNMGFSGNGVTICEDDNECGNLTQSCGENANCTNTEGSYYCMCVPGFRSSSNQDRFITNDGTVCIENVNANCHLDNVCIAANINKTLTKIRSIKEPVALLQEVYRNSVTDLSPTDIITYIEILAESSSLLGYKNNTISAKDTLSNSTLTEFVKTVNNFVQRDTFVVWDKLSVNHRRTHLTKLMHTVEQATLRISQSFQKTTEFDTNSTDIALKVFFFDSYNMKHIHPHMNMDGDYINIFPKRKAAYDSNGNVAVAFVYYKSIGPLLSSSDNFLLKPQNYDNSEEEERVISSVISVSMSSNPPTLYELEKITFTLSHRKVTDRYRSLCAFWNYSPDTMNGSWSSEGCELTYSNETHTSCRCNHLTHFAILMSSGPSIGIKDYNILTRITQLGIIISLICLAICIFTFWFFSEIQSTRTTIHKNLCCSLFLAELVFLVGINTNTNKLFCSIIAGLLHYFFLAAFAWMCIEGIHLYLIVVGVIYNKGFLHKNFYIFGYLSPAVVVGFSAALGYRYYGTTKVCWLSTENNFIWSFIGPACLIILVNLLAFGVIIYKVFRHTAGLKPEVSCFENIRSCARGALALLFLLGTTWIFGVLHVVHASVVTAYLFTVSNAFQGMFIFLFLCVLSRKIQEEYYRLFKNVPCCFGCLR
# T1 sequence (Q8TDS5 whole entry): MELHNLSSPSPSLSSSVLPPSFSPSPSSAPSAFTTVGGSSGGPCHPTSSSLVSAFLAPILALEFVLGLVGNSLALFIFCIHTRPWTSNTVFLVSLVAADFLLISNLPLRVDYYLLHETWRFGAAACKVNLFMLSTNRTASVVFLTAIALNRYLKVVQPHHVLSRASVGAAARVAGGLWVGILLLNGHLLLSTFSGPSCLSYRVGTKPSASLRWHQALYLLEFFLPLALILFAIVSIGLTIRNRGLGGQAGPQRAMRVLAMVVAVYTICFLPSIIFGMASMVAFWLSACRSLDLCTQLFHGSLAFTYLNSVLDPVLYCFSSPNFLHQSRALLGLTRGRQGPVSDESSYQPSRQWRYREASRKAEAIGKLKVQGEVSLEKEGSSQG
structure (smiles),measurement,setting,value
CCOc1cccc2cc(C(C)NCC3(O)CCCCC3)oc12 (stereo not shown) [O4LE6],GPCRome agonism screen response,320 non-olfactory GPCRs [1],0.5177 and 0.9727 and 1.432 and 1.135
same,Fold of Basal,320 non-olfactory GPCRs [2],1.158 and 1.093 and 1.161 and 0.9931
same,GPCRome agonism screen response,320 non-olfactory GPCRs [3],1.102 and 1.23 and 1.725 and 1.228
same,GPCRome agonism screen response,320 non-olfactory GPCRs [4],1.684 and 1.1 and 0.9323 and 0.6942
